Assays:
[1] = target: Recombinant human JAK1 catalytic domain (Homo sapiens (Human), UniProt P23458); assay: JAK1 inhibition assay; format: biochemical; details: semi-quantitative score
In short: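 Radiometric assay read by scintillation counting after phosphoric-acid washes. Percent inhibition calculated from cpm relative to vehicle and 10 μM staurosporine control. IC50 derived from compound dose-dilution series.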

[2] = Microsomal stability, rat liver microsomes; format: in vitro ADME; details: percentage of compound remaining after 60 minutes, 3 μM compound
Experimental: (§1) 40 μL of deionised water was added to a well of a polypropylene Matrix 2D barcode labelled storage tube (Thermo Scientific) and pre-incubated at 37° C.
(§2) A co-factor containing MgCl2, glucose-6-phosphate and NADP+ was prepared in deionised water and placed on ice before use.
(§3) A final working solution containing liver microsomes (Xenotech of a species of interest (human, mouse, rat, dog), previously described G6PDH and co-factors was prepared and this mix was incubated for no longer than 20 minutes at room temperature.
(§4) 30 μL of the pre-heated compound dilution was added to 40 μL of pre-heated water in the Matrix tubes and 30 μL of the microsomal mix was added.
(§5) To measure percentage remaining of compound at time zero MeOH or ACN was added (1:1) to the well before adding the microsomal mix.
(§6) The samples which were not stopped are incubated at 37° C., 300 rpm and after 1 hour of incubation the reaction was stopped with MeOH or ACN (1:1).
(§7) After stopping the reaction the samples were mixed and placed on ice for 30 min to precipitate the proteins.
(§8) The samples were analyzed on LCMS with a flow rate of 1 mL/min. Solvent A was 15 mM ammonia and solvent B was methanol or acetonitrile, depending on the stop solution used. […] The percentage remaining after 1 hour incubation was calculated from time 0 and was calculated as the percentage remaining.
(§9) The data on microsomal stability are expressed as a percentage of the total amount of compound remaining after 60 minutes.

[3] = system: JAK-STAT signalling in HeLa cells; assay: JAK-STAT signalling assay (OSM-triggered pSTAT1(2)-luciferase reporter in HeLa cells); format: cell-based; details: Homo sapiens; HeLa cells, OSM-triggered pSTAT1(2)-luciferase reporter; read-out: STAT signalling EC50
In short: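 HeLa cells transiently transfected with pSTAT1(2)-luciferase reporter plus LacZ internal control, incubated overnight at 37 °C, 10% CO2, then OSM-stimulated with compound. Luciferase read by Steadylite luminescence and normalised to β-galactosidase (ONPG); percent inhibition from controls, EC50 from dose-response.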

[4] = Microsomal stability, human liver microsomes; format: in vitro ADME; details: percentage of compound remaining after 60 minutes, 3 μM compound
Experimental: as §1, §2, §3, §4, §5, §6, §7, §8, §9

[5] = target: Recombinant human JAK2 catalytic domain (Homo sapiens (Human), UniProt O60674); assay: JAK2 inhibition assay; format: biochemical; details: semi-quantitative score
Recombinant human JAK2 catalytic domain, sequence (O60674 808-1132): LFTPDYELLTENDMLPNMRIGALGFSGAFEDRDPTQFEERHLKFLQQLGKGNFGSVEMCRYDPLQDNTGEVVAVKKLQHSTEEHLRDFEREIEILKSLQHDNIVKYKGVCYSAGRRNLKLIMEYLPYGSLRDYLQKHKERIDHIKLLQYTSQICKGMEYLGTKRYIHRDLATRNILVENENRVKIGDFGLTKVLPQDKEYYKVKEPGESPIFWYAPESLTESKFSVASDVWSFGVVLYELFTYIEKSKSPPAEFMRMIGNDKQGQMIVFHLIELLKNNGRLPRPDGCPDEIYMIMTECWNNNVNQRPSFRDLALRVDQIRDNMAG
In short: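 Radiometric kinase reactions ran for 90 min at 30 °C and were stopped with phosphoric acid, then washed and counted by scintillation. Percent inhibition was set relative to vehicle and to 10 μM staurosporine background. IC50 was derived from dose-dilution series.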

MMP13 in SW1353 cells = assay: OSM/IL-1β signaling assay (MMP13 levels in SW1353 cells); format: cell-based; details: Homo sapiens; SW1353 cells, OSM and IL-1β triggered, MMP13 levels 48 hours after triggering; read-out: MMP13 EC50;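 further: secreted MMP13 captured by antibody, activated with APMA and its activity read by fluorescence, inhibition scaled between vehicle-treated triggered wells (0%) and untriggered wells (100%)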
Experimental: The cells were seeded in 96 well plates at 15,000 cells/well in a volume of 120 μL DMEM (Invitrogen) containing 10% (v/v) FBS and 1% penicillin/streptomycin (InVitrogen) incubated at 37° C. […] MMP13 activity was measured using an antibody capture activity assay. […] Next the wells were washed twice with PBS+0.05% Tween followed by MMP13 activation by addition of 35 μL of a 1.5 mM 4-Aminophenylmercuric acetate (APMA) (Sigma, A9563) solution and incubation at 37° C. for 1 hour. […] Percentage inhibition=((fluorescence determined in the presence of vehicle−fluorescence determined for sample with test compound present) divided by (fluorescence determined in the presence of vehicle−fluorescence determined for sample without trigger))*100%.

Recombinant human JAK1 catalytic domain, sequence (P23458 850-1154): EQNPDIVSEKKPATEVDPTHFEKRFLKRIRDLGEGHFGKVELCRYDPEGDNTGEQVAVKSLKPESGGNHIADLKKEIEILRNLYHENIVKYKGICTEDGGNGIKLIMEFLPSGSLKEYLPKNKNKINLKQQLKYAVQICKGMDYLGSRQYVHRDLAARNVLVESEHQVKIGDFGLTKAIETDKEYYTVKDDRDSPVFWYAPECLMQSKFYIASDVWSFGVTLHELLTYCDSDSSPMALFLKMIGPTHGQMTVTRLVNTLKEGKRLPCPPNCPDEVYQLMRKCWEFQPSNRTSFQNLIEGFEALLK

IC50 [1] | Microsomal Stability Rat (%) [2] | EC50 [3] | Microsomal Stability Human (%) [4] | IC50 [5] | EC50 (MMP13 in SW1353 cells) | Compound
< 100 nM | * (* 0-25) | 101 to 500 nM | * (* 0-25) | < 100 nM | 1 to 500 nM | N#CCc1ccccc1NCc1ccc(-c2cccc3nc(NC(=O)C4CC4)nn23)cc1 [Compound 225, Cyclopropanecarboxylic acid (5-{4-[(2-cyanomethyl-phenylamino)-methyl]-phenyl}-[1,2,4]triazolo[1,5-a]pyridin-2-yl)-amide]
< 100 nM | ** (** 26-50) | > 1000 nM | *** (*** 51-75) | < 100 nM | 501 to 1000 nM | O=C(Nc1nc2cccc(-c3ccc(CN4CCC(F)CC4)cc3)n2n1)C1CC1 [Compound 233, Cyclopropanecarboxylic acid {5-[4-(4-fluoro-piperidin-1-ylmethyl)-phenyl]-[1,2,4]triazolo[1,5-a]pyridin-2-yl}-amid]
< 100 nM | ** (** 26-50) | 101 to 500 nM | *** (*** 51-75) | < 100 nM | 1 to 500 nM | O=C(Nc1nc2cccc(-c3ccc(CNc4ccc(Cl)cc4F)cc3)n2n1)C1CC1 [Compound 212, Cyclopropanecarboxylic acid (5-{4-[(4-chloro-2-fluoro-phenylamino)-methyl]-phenyl}-[1,2,4]triazolo[1,5-a]pyridin-2-yl)-amide]
< 100 nM | * (* 0-25) | 101 to 500 nM | * (* 0-25) | < 100 nM | 501 to 1000 nM | O=C(Nc1nc2cccc(-c3ccc(CNc4c(F)cccc4F)cc3)n2n1)C1CC1 [Compound 246, Cyclopropanecarboxylic acid (5-{4-[(2,6-difluoro-phenylamino)-methyl]-phenyl}-[1,2,4]triazolo[1,5-a]pyridin-2-yl)-amide]
< 100 nM | **** (**** 76-100) | 501 to 1000 nM | *** (*** 51-75) | 101 to 500 nM | > 1000 nM | O=C(Nc1nc2cccc(-c3ccc(CN4CCN(CC(F)(F)F)CC4)cc3)n2n1)C1CC1 [Compound 241, Cyclopropanecarboxylic acid (5-{4-[4-(2,2,2-trifluoro-ethyl)-piperazin-1-ylmethyl]-phenyl}-[1,2,4]triazolo[1,5-a]pyridin-2-yl)-amide]
< 100 nM | * (* 0-25) | 501 to 1000 nM | * (* 0-25) | < 100 nM | 501 to 1000 nM | O=C(Nc1nc2cccc(-c3ccc(CNc4ccccn4)cc3)n2n1)C1CC1 [Compound 244, Cyclopropanecarboxylic acid (5-[4-(pyridin-2-ylaminomethyl)-phenyl]-[1,2,4]triazolo[1,5-a]pyridin-2-yl}-amide]
< 100 nM | * (* 0-25) | 101 to 500 nM | * (* 0-25) | < 100 nM | > 1000 nM | COc1c(F)ccc(NCc2ccc(-c3cccc4nc(NC(=O)C5CC5)nn34)cc2)c1F [Compound 245, Cyclopropanecarboxylic acid (5-{4-[(2,4-difluoro-3-methoxy-phenylamino)-methyl]-phenyl}-[1,2,4]triazolo[1,5-a]pyridin-2-yl)-amide]
< 100 nM | * (* 0-25) | 101 to 500 nM | * (* 0-25) | < 100 nM | > 1000 nM | N#CCc1ccc(NCc2ccc(-c3cccc4nc(NC(=O)C5CC5)nn34)cc2)cc1 [Compound 224]
< 100 nM | **** (**** 76-100) | 501 to 1000 nM | * (* 0-25) | 101 to 500 nM | > 1000 nM | O=C(Nc1nc2cccc(-c3ccc(CC(=O)N4CCCCC4)cc3)n2n1)C1CC1 [Compound 266, Cyclopropanecarboxylic acid {5-[4-(2-oxo-2-piperidin-1-yl-ethyl)-phenyl]-[1,2,4]triazolo[1,5-a]pyridin-2-yl}-amide]
< 100 nM | * (* 0-25) | 101 to 500 nM | * (* 0-25) | < 100 nM | 501 to 1000 nM | O=C(Nc1nc2cccc(-c3ccc(CNc4ccccc4F)cc3)n2n1)C1CC1 [Compound 226, Cyclopropanecarboxylic acid (5-{4-[(2-fluoro-phenylamino)-methyl]-phenyl}-[1,2,4]triazolo[1,5-a]pyridin-2-yl)-amide]

The next lines start with the compound.

Compound | IC50 [1] | Microsomal Stability Rat (%) [2] | EC50 [3] | Microsomal Stability Human (%) [4] | IC50 [5] | EC50 (MMP13 in SW1353 cells)
O=C(Cc1ccccc1)Nc1ccc(-c2cccc3nc(NC(=O)C4CC4)nn23)cc1 [Compound 23, N-(5-(4-(2-phenylacetamido)phenyl)-[1,2,4]triazolo[1,5-a]pyridin-2-yl)cyclopropanecarboxamide] | < 100 nM | ** (** 26-50) | > 1000 nM | * (* 0-25) | 101 to 500 nM | > 1000 nM
O=C(Nc1nc2cccc(-c3ccc(OCc4ccc[n+]([O-])c4)cc3)n2n1)C1CC1 [Compound 196, Cyclopropanecarboxylic acid {5-[4-(1-hydroxy-pyridin-3-ylmethoxy)-phenyl]-[1,2,4]triazolo[1,5-a]pyridin-2-yl}-amide] | < 100 nM | **** (**** 76-100) | > 1000 nM | **** (**** 76-100) | 101 to 500 nM | > 1000 nM
O=C(Nc1nc2cccc(-c3ccc(OCCOc4ccc(F)cc4)cc3)n2n1)C1CC1 [Compound 115, N-(5-(4-(2-(4-fluorophenoxy)ethoxy)phenyl)-[1,2,4]triazolo[1,5-a]pyridin-2-yl)cyclopropanecarboxamide] | < 100 nM | ** (** 26-50) | > 1000 nM | *** (*** 51-75) | 101 to 500 nM | > 1000 nM
O=C(Nc1nc2cccc(-c3ccc(-c4ccccc4)cc3)n2n1)C1CC1 [Compound 7, N-(5-(biphenyl-4-yl)-[1,2,4]triazolo[1,5-a]pyridin-2-yl)cyclopropanecarboxamide] | < 100 nM | ** (** 26-50) | > 1000 nM | ** (** 26-50) | 101 to 500 nM | > 1000 nM
O=C(Nc1nc2cccc(-c3ccc(OCc4ccc(Cl)nc4)cc3)n2n1)C1CC1 [Compound 198, Cyclopropanecarboxylic acid {5-[4-(6-chloro-pyridin-3-ylmethoxy)-phenyl]-[1,2,4]triazolo[1,5-a]pyridin-2-yl}-amide] | < 100 nM | *** (*** 51-75) | 101 to 500 nM | *** (*** 51-75) | < 100 nM | > 1000 nM
O=C(Nc1ccc(-c2cccc3nc(NC(=O)C4CC4)nn23)cc1)c1ccccc1 [Compound 21, N-(4-(2-(cyclopropanecarboxamido)-[1,2,4]triazolo[1,5-a]pyridin-5-yl)phenyl)benzamide] | < 100 nM | **** (**** 76-100) | > 1000 nM | *** (*** 51-75) | 101 to 500 nM | > 1000 nM
Cc1noc(C)c1CCOc1ccc(-c2cccc3nc(NC(=O)C4CC4)nn23)cc1 [Compound 201, Cyclopropanecarboxylic acid (5-{4-[2-(3,5-dimethyl-isoxazol-4-yl)-ethoxy]-phenyl}-[1,2,4]triazolo[1,5-a]pyridin-2-yl)-amide] | < 100 nM | * (* 0-25) | 101 to 500 nM | * (* 0-25) | 101 to 500 nM | 501 to 1000 nM
CC(=O)N(Cc1cccnc1)c1ccc(-c2cccc3nc(NC(=O)C4CC4)nn23)cc1 [Compound 202, Cyclopropanecarboxylic acid {5-[4-(acetyl-pyridin-3-ylmethyl-amino)-phenyl]-[1,2,4]triazolo[1,5-a]pyridin-2-yl}-amide] | < 100 nM | * (* 0-25) | > 1000 nM | * (* 0-25) | < 100 nM | > 1000 nM
